Experimental data published in the NIST ThermoML archive (doi:10.1021/je050305z).

Conditions: Gas, Hot wire method

N#N [nitrogen]
Conditions	thermal conductivity [W/m/K]
235.41 K, 3405.4 kPa	0.02334
235.72 K, 3405.4 kPa	0.02333
255.55 K, 5432.8 kPa	0.026
255.7 K, 1281.1 kPa	0.02332
255.86 K, 5432.8 kPa	0.02596
256.26 K, 1281.1 kPa	0.02323
275.39 K, 5057.3 kPa	0.02674
275.41 K, 1027.7 kPa	0.02441
276.05 K, 5057.3 kPa	0.0269
276.11 K, 1027.7 kPa	0.02435
295.15 K, 1844.1 kPa	0.02606
295.25 K, 4380.8 kPa	0.02731
295.68 K, 1844.1 kPa	0.02599
295.92 K, 4380.8 kPa	0.02738
325.32 K, 716 kPa	0.02758
325.43 K, 2042.9 kPa	0.02842
326.2 K, 2042.9 kPa	0.02845
326.23 K, 4941.8 kPa	0.02961
326.39 K, 716 kPa	0.02763
